Source: patent US20080275085A1, “Piperidine derivative and use thereof” (priority 2007, published 2008)
Where a name gives a salt, the structure may show the parent alone.

Tests used:
[1] = target: T1, substance P receptor (Homo sapiens, UniProt P25103); assay: Radioligand receptor binding inhibitory activity (125I-BHSP binding, receptor from IM-9 cells); settings: receptor from human lymphoblast cells (IM-9); radioligand 125I-BHSP; 25° C., 30 min
T1 construct: The receptor was prepared from human lymphoblast cells (IM-9); endogenous in cells; host or cells: IM-9 human lymphoblast cells (membrane fraction, 100,000xG precipitate)
T1 sequence (P25103 whole entry): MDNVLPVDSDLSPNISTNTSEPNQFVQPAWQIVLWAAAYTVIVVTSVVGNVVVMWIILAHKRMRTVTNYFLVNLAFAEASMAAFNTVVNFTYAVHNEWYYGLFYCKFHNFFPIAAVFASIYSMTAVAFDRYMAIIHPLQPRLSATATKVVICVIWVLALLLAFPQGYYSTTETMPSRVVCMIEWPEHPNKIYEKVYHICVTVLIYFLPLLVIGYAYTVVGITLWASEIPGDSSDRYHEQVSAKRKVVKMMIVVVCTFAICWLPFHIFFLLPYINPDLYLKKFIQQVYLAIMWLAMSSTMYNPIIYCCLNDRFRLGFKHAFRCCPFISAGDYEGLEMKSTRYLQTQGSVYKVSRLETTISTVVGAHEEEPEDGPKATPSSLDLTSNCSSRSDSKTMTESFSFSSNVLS
Procedure: Radioligand Receptor Binding Inhibitory Activity (Binding Inhibitory Activity Using Receptor from Human Lymphoblast Cells (IM-9))
The method of M. A. Cascieri et al., “Molecular Pharmacology, vol. 42, p. 458 (1992)” was modified and used. The receptor was prepared from human lymphoblast cells (IM-9).
IM-9 cells (2×10^5 cells/mL) were inoculated and incubated for 3 days, which was then subjected to centrifugation for 10 min. at 500×G to give cell pellets. The obtained pellets were washed with PBS (GIBCO), disrupted in buffer A (50 mM tris.hydrochloric acid buffer (pH 7.4) containing 120 mM sodium chloride, 5 mM potassium chloride, 2 μg/mL chymostatin, 40 μg/mL bacitracin, 40 μg/mL APMSF, 1 mM ethylenediamine tetra acetic acid) using a polytron.homogenizer [manufactured by Kinematika, Germany], and centrifuged at 100,000×G for 40 min. The precipitated fraction was suspended in buffer B (50 mM Tris-HCl (pH 7.4), 0.02% bovine serum albumin, 2 μg/mL chymostatin, 40 μg/mL bacitracin, 40 μg/mL APMSF, 3 mM MgCl2), which was then cryopreserved (−80° C.) as a receptor specimen.
Buffer B (50 μL) was added to a 96 well microassay plate (CORNING). Thereto was added 50 μL of membrane preparation suspended in buffer B at 250 μg/mL. A measurement buffer (50 μL) containing 2% dimethyl sulfoxide was added to examine total binding; 4 μM unlabeled SP (50 μL) diluted with a measurement buffer containing 2% dimethyl sulfoxide was added to examine non-specific binding; and 50 μL of a test compound (containing 2% dimethyl sulfoxide) diluted with a measurement buffer was added to examine binding inhibitory activity of the test compound. In addition, […] ^125I-BHSP solution (50 μL) was added to each well.
After reaction at 25° C. for 30 min, the cells were rapidly filtered through a GF/C filter plate (PerkinElmer) using a cell harvester (manufactured by PerkinElmer) to quench the reaction, and washed 10 times with 250 μL of 50 mM tris-HCl buffer (pH 7.4) containing 0.02% bovine serum albumin. The GF/C filter plate was dried, MicroScinti 0 (20 μL) was added, and the radioactivity was measured with TopCount (manufactured by PerkinElmer). The GF/C filter plate was immersed in 0.3% polyethylene imine for one day before use.
Specific binding is a value obtained by subtracting nonspecific binding from total binding. The binding inhibitory activity of a test compound is shown by a ratio of a value obtained by subtracting a measurement value with addition of a test compound from the total binding, relative to specific binding.
The antagonistic activity of the compounds obtained in the Examples was determined as a concentration necessary for causing 50% inhibition (IC50 value) under the above-described conditions, and the results shown in Table 34 were obtained.
The radio ligand means substance P labeled with [^125I].

Row | SMILES | melting point [°C] | IC50 [1] [nM]
1 | Cc1cc(F)ccc1[C@@H]1CN(C2=CC(=O)CC2)CC[C@H]1C(=O)N(C)Cc1cc(C(F)(F)F)cc(C(F)(F)F)c1 (relative stereo) [Example 118, (3R*,4R*)—N-[3,5-bis(trifluoromethyl)benzyl]-3-(4-fluoro-2-methylphenyl)-N-methyl-1-(3-oxocyclopent-1-en-1-yl)piperidine-4-carboxamide] | 192 to 193 | 0.06
2 | CCS(=O)(=O)N1CC[C@@H](C(=O)N(C)Cc2cc(C(F)(F)F)cc(C(F)(F)F)c2)[C@H](c2ccc(F)cc2C)C1 (relative stereo) [Example 132, (3R*,4R*)—N-[3,5-bis(trifluoromethyl)benzyl]-1-(ethylsulfonyl)-3-(4-fluoro-2-methylphenyl)-N-methylpiperidine-4-carboxamide] | 170 to 171 | 0.04
3 | Cc1cc(F)ccc1[C@@H]1CN(C2=CC(=O)C(C)(C)CC2)CC[C@H]1C(=O)N(C)Cc1cc(C(F)(F)F)cc(C(F)(F)F)c1 (relative stereo) [Example 119, (3R*,4R*)—N-[3,5-bis(trifluoromethyl)benzyl]-1-(4,4-dimethyl-3-oxocyclohex-1-en-1-yl)-3-(4-fluoro-2-methylphenyl)-N-methylpiperidine-4-carboxamide] | 137 to 138 | 0.06
4 | Cc1cc(F)ccc1[C@@H]1CN(S(=O)(=O)N(C)C)CC[C@H]1C(=O)N(C)Cc1cc(C(F)(F)F)cc(C(F)(F)F)c1 (relative stereo) [Example 142, (3R*,4R*)—N-[3,5-bis(trifluoromethyl)benzyl]-1-[(dimethylamino)sulfonyl]-3-(4-fluoro-2-methylphenyl)-N-methylpiperidine-4-carboxamide] | 142 to 144 | 0.055
5 | Cc1cc(F)ccc1[C@@H]1CN(CCC(C)(C)O)CC[C@H]1C(=O)N(C)Cc1cc(C(F)(F)F)cc(C(F)(F)F)c1 (relative stereo) (as salt: hydrochloride) (hydrate or solvate) [Example 123, (3R*,4R*)—N-[3,5-bis(trifluoromethyl)benzyl]-3-(4-fluoro-2-methylphenyl)-1-(3-hydroxy-3-methylbutyl)-N-methylpiperidine-4-carboxamide monohydrochloride] | 126 to 128 | –
6 | Cc1cc(F)ccc1[C@@H]1CN(CC(N)=O)CC[C@H]1C(=O)N(C)Cc1cc(C(F)(F)F)cc(C(F)(F)F)c1 (relative stereo) (as salt: hydrochloride) (hydrate or solvate) [Example 112, (3R*,4R*)-1-(2-amino-2-oxoethyl)-N-[3,5-bis(trifluoromethyl)benzyl]-3-(4-fluoro-2-methylphenyl)-N-methylpiperidine-4-carboxamide monohydrochloride] | 175 to 177 | –
7 | CCOCCS(=O)(=O)N1CC[C@@H](C(=O)N(C)Cc2cc(C(F)(F)F)cc(C(F)(F)F)c2)[C@H](c2ccc(F)cc2C)C1 (relative stereo) [Example 138, (3R*,4R*)—N-[3,5-bis(trifluoromethyl)benzyl]-1-[(2-ethoxyethyl)sulfonyl]-3-(4-fluoro-2-methylphenyl)-N-methylpiperidine-4-carboxamide] | 151 to 153 | 0.078

The next lines start with the values.

Row | melting point [°C] | IC50 [1] [nM] | SMILES
8 | 187 to 189 | 0.045 | Cc1cc(F)ccc1[C@@H]1CN(S(=O)(=O)c2ccccn2)CC[C@H]1C(=O)N(C)Cc1cc(C(F)(F)F)cc(C(F)(F)F)c1 (relative stereo) [Example 144, (3R*,4R*)—N-[3,5-bis(trifluoromethyl)benzyl]-3-(4-fluoro-2-methylphenyl)-N-methyl-1-(pyridin-2-ylsulfonyl)piperidine-4-carboxamide]
9 | 161 to 164 | 0.024 | Cc1cc(F)ccc1[C@H]1CN(CC(N)=O)CC[C@@H]1C(=O)N(C)[C@@H](C)c1cc(C(F)(F)F)cc(C(F)(F)F)c1 [Example 156, (3S,4S)-1-(2-amino-2-oxoethyl)-N-{(1S)-1-[3,5-bis(trifluoromethyl)phenyl]ethyl}-3-(4-fluoro-2-methylphenyl)-N-methylpiperidine-4-carboxamide]
10 | 133 to 139 | – | Cc1cc(F)ccc1[C@H]1CN(CC(N)=O)CC[C@@H]1C(=O)N(C)[C@H](C)c1cc(C(F)(F)F)cc(C(F)(F)F)c1.Cl (hydrate or solvate)
11 | 196 to 198 | – | Cc1cc(F)ccc1[C@@H]1CN(S(=O)(=O)CCN2CCOCC2)CC[C@H]1C(=O)N(C)Cc1cc(C(F)(F)F)cc(C(F)(F)F)c1 (relative stereo) (as salt: hydrochloride) [Example 139, (3R*,4R*)—N-[3,5-bis(trifluoromethyl)benzyl]-3-(4-fluoro-2-methylphenyl)-N-methyl-1-[(2-morpholin-4-ylethyl)sulfonyl]piperidine-4-carboxamide monohydrochloride]
12 | 154 to 156 | 0.081 | Cc1cc(F)ccc1[C@H]1CN(S(=O)(=O)C2CC2)CC[C@@H]1C(=O)N(C)[C@@H](C)c1cc(C(F)(F)F)cc(C(F)(F)F)c1 [Example 162, (3S,4S)—N-{(1S)-1-[3,5-bis(trifluoromethyl)phenyl]ethyl}-1-(cyclopropylsulfonyl)-3-(4-fluoro-2-methylphenyl)-N-methylpiperidine-4-carboxamide]
13 | 185 to 188 | – | Cc1cc(F)ccc1[C@H]1CN(C(=O)c2cncnc2)CC[C@@H]1C(=O)N(C)[C@@H](C)c1cc(C(F)(F)F)cc(C(F)(F)F)c1 (hydrate or solvate) [Example 158, (3S,4S)—N-{(1S)-1-[3,5-bis(trifluoromethyl)phenyl]ethyl}-3-(4-fluoro-2-methylphenyl)-N-methyl-1-(pyrimidin-5-ylcarbonyl)piperidine-4-carboxamide]
